# Reference: patent publication US7906486B2, “Method of treating or preventing tissue deterioration, injury or damage due to disease of mucosa” (SciClone Pharmaceuticals, Inc., priority 2007, dated 2011)
# “And” between values parts separate entries of the source, which are not always exact repeats. Equal values may be shown once.
# Key:
# [1] = system: oral mucositis induced by acute radiation (40 Gy, left buccal cheek pouch); test: Oral mucositis induced by acute radiation in hamsters, mucositis scoring (Example 2, SCI-02); format: in vivo, Syrian Golden Hamsters; set-up: key to peak mean mucositis score: 0 = normal to 5 = severe ulceration (visual scale); key to Mucositis score: 0: Pouch completely healthy. No erythema or vasodilation.; 1: Light to severe erythema and vasodilation. No erosion of mucosa.; 2: Severe erythema and vasodilation. Erosion of superficial aspects of mucosa leaving denuded areas. Decreased stippling of mucosa.; 3: Formation of off-white ulcers in one or more places. Ulcers may have a yellow/gray due to pseudomembrane. Cumulative size of ulcers should equal about ¼ of the pouch. Severe erythema and vasodilation.; 4: Cumulative seize of ulcers should equal about ½ of the pouch. Loss of pliability. Severe erythema and vasodilation.; 5: Virtually all of pouch is ulcerated. Loss of pliability (pouch can only partially be extracted from mouth); settings: for % Days >=3 / Days <3 / Days >=3 / Chi Sq v control: sc, days -1 to 20; for Mucositis score: Group 2 (SCV-07 100 μg/kg once daily, days -1 to 20), individual animals, two scores per animal; for Days >=3: animal days with mucositis score of three or more; for Chi Sq v control: days with score >=3
# Text: The acute radiation model in hamsters, developed by the Principle Investigator, has proven to be an accurate, efficient and cost-effective technique to provide a preliminary evaluation of anti-mucositis compounds. The course of mucositis in this model is well defined and results in peak scores approximately 14-16 Days following radiation. The acute model has little systemic toxicity, resulting in few hamster deaths, thus permitting the use of smaller groups (N=7-8) for initial efficacy studies. It has also been used to study specific mechanistic elements in the pathogenesis of mucositis. Molecules that show efficacy in the acute radiation model may be further evaluated in the more complex models of fractionated radiation, chemotherapy, or concomitant therapy.
# In this study, an acute radiation dose of 40 Gy on day 0 was administered. Clinically significant mucositis was observed on days 12 through 28.
# Forty (40) Syrian Golden Hamsters were given an acute radiation dose of 40 Gy directed to their left buccal cheek pouch on day 0. Test material SCV-07 was given by sub-cutaneous injection at 100 μg/kg or 1 mg/kg once or twice daily. Dosing began one day before radiation (day −1) and continued until day 20. Mucositis was evaluated clinically starting on day 6, and continuing on alternate days until day 28.
# The grade of mucositis was scored, beginning day 6, and for every second day thereafter, through and including day 28. The effect on mucositis of each drug treatment compared to placebo was assessed according to the following parameters:
# On each evaluation day, the number of animals with a blinded mucositis score of ≧3 in each drug treatment group was compared to the control group. Differences were compared on a cumulative basis and statistical significance was determined by chi-square analysis. Efficacy, in this analysis, is defined by a significant reduction in the number of days that a group of animals had ulcerations (scores ≧3) when compared to the control group. This same test was also used to evaluate differences between different drug treatment groups.
# For each evaluation day the scores of the control group were compared to those of the treated groups using non-parametric rank sum analysis. Treatment success was considered as a statistically significant lowering of scores in the treated group on 2 or more days from day 6 to day 28.
# Forty Syrian Golden Hamsters were divided into five (5) groups of eight (8) animals each. All animals received a single dose of acute radiation of 40 Gy directed to their left buccal cheek pouch on day 0. This was accomplished by anesthetizing the animals and everting the left buccal pouch, while protecting the rest of the animals with a lead shield. Test materials were given by sub-cutaneous injection once daily as detailed in Table 5. Mucositis was evaluated clinically starting on Day 6, and continuing on alternate days until day 28.
# Mucositis was induced using a standardized acute radiation protocol. A single dose of radiation (40 Gy/dose) was administered to all animals on day 0. Radiation was generated with a 160 kilovolt potential (15-ma) source at a focal distance of 30 cm, hardened with a 0.35 mm Cu filtration system. Irradiation targeted the left buccal pouch mucosa at a rate of 3.2 Gy/minute. Prior to irradiation, animals were anesthetized with an intraperitoneal injection of Ketamine (160 mg/kg) and Xylazine (8 mg/kg). The left buccal pouch was everted, fixed and isolated using a lead shield to protect all other parts of the hamster's body.
# The mucositis score, weight change and survival were measured throughout the study as described above. For the evaluation of mucositis, the animals were anesthetized with an inhalation anesthetic, and the left pouch everted. Mucositis was scored visually by comparison to a validated photographic scale, ranging from 0 for normal, to 5 for severe ulceration (clinical scoring). In descriptive terms, this scale is defined as follows: […]
# [2] = system: 5-FU-immune-suppressed animals; settings: in vivo; cited from earlier work
# [3] = system: immunization with sheep red blood cells; settings: in vivo; cited from earlier work
# [4] = 100 ug/kg once daily from day -1 to 20
# [5] = 1 mg/kg once daily from day -1 to 20
# [6] = 1 mg/kg twice daily from day -1 to 20
structure (smiles),measurement,setting,value
"N[C@H](CCC(=O)N[C@@H](Cc1c[nH]c2ccccc12)C(=O)O)C(=O)O [SCV-07, γ-D-glutamyl-L-tryptophan]",day of peak mean mucositis score,[1]; [4],16
same,peak mean mucositis score,[1]; [4],2.2
same,peak mean mucositis score,[1]; 100 ug/kg twice daily from day -1 to 20,2.5
same,% Days >=3,"[1]; 100 ug/kg, bid",8.9%
same,Days <3,"[1]; 100 ug/kg, bid",175
same,% Days >=3,"[1]; 100 ug/kg, qd",6.3%
same,Days <3,"[1]; 100 ug/kg, qd",180
same,day of peak mean mucositis score,[1]; [5],14
same,peak mean mucositis score,[1]; [5],2.9
same,improvement in daily mucositis scores relative to controls (Mann-Whitney rank sum),"[1]; 1 mg/kg once daily on days -1 to 20, any day of the study",no significant improvement in mucositis on any day
same,day of peak mean mucositis score,[1]; [6],14
same,peak mean mucositis score,[1]; [6],2.6
same,% Days >=3,"[1]; 1 mg/kg, bid",12.5%
same,Days <3,"[1]; 1 mg/kg, bid",168
same,% Days >=3,"[1]; 1 mg/kg, qd",28.1%
same,Days <3,"[1]; 1 mg/kg, qd",138
same,Mucositis score,[1]; day 6,1 (6×) and 0 (2×)
same,Mucositis score,[1]; day 8,1
same,Mucositis score,[1]; day 10,2 (4×) and 1 (4×)
same,Mucositis score,[1]; day 12,2 (7×) and 3
same,Mucositis score,[1]; day 14,2
same,Mucositis score,[1]; day 16,2
same,Mucositis score,[1]; day 18,2 (5×) and 3 (2×) and 1
same,Mucositis score,[1]; day 20,2 (6×) and 3 (2×)
same,Mucositis score,[1]; day 22,1 (2×) and 2 (7×)
same,Mucositis score,[1]; day 24,1 (3×) and 2 (6×)
same,Mucositis score,[1]; day 26,1 (2×) and 2 (7×)
same,Mucositis score,[1]; day 28,1 (7×) and 2 (2×)
same,Days >=3,"[1]; 100 ug/kg, bid",17
same,Days >=3,"[1]; 100 ug/kg, qd",12
same,Days >=3,"[1]; 1 mg/kg, bid",24
same,Days >=3,"[1]; 1 mg/kg, qd",54
same,"P, number of animal days with a score of 3 or higher, 100 ug/kg once daily vs 1 mg/kg twice daily","[1]; chi-squared test, no statistically significant difference",0.054
same,Chi Sq v control,"[1]; 100 ug/kg, bid",21.4010
same,Chi Sq v control,"[1]; 100 ug/kg, qd",27.828
same,Chi Sq v control,"[1]; 1 mg/kg, bid",12.7360
same,Chi Sq v control,"[1]; 1 mg/kg, qd",0.0000
same,immunostimulatory effect on 5-FU-immune-suppressed animals,[2],strong immunostimulatory effect
same,immunostimulatory effect in a model of immunization with sheep red blood cells,[3],strong immunostimulatory effect
